Results: patent US20240226048A1, “METHODS OF TREATMENT USING BEMPEDOIC ACID” (Esperion Therapeutics, Inc., priority 2023, published 2024)

Assay: CLEAR OUTCOMES trial: time-to-event cardiovascular efficacy end points
Format: in vivo, human
Settings: for Primary efficacy endpoint (MACE-4), Hazard Ratio (95% CI): Cox proportional hazards, P 0.004; for Fatal and non-fatal MI, Hazard Ratio (95% CI): P 0.002; for 3-component MACE, Hazard Ratio (95% CI): P 0.006
Description: The CLEAR OUTCOMES trial was a randomized, placebo-controlled, double-blind trial that enrolled patients at 1250 sites in 32 countries. An independent Data Monitoring Committee reviewed safety and efficacy data during the trial.
Patients 18 to 85 years of age were eligible for enrollment if they met either of two criteria for increased cardiovascular risk, a prior cardiovascular event (secondary prevention) or clinical features that placed them at high risk for a cardiovascular event (primary prevention). (Nicholls S, Lincoff A M, Bays H E, et al. Rationale and design of the CLEAR-outcomes trial: Evaluating the effect of bempedoic acid on cardiovascular events in patients with statin intolerance. Am Heart J. 2021 May; 235: 104-112) All patients provided written informed consent. Patients had to report statin intolerance due to an adverse effect that started or increased during statin therapy and resolved or improved after statin therapy was discontinued. Patients could be enrolled if they tolerated a very low average daily statin dose (e.g., an average daily dose of rosuvastatin <5 mg, atorvastatin <10 mg, simvastatin <10 mg, lovastatin <20 mg, pravastatin <40 mg, fluvastatin <40 mg, or pitavastatin <2 mg). Other lipid-lowering therapies were permitted, including ezetimibe, niacin, bile acid resins, fibrates, and/or proprotein convertase subtilisin kexin type 9 (PCSK9) inhibitors. Full inclusion and exclusion criteria are provided in Nicholls et al. (Am Heart J. 2021).
Eligible patients entered a 4-week run-in period during which patients were treated with single-blind placebo. If patients were intolerant to placebo treatment or if adherence was <80% by tablet count, they were not eligible for randomization. Patients who successfully completed the run-in period were randomly assigned in a 1:1 ratio to receive bempedoic acid at an oral dose of 180 mg or matching placebo, administered daily. Beginning 6 months after enrollment, the central laboratory notified the investigator if the patient's LDL-cholesterol level was ≥25% higher than baseline. These patients were counseled on healthy dietary guidelines and reminded to take all lipid-regulating medications. If repeat testing confirmed that LDL-cholesterol value met the threshold criteria, the provider could adjust the lipid-lowering treatment regimen per standard of care and local guidelines.
The primary end point was the first occurrence of a composite of death from cardiovascular causes, nonfatal myocardial infarction (MI), nonfatal stroke, or coronary revascularization. The first key secondary end point was time to the first occurrence of the composite of cardiovascular death, nonfatal stroke or MI. Further key secondary end points included time to first occurrence of each of the following outcomes tested in hierarchical order, fatal or nonfatal MI, coronary revascularization, fatal or nonfatal stroke, death from cardiovascular causes, and all-cause mortality.
This was an event-driven trial designed to provide at least 90% power to detect a 15% relative risk reduction for the primary composite end point at an overall two-sided significance level of 0.05. The trial required a minimum of 1620 primary composite events with >24 months of follow-up for all patients and at least 810 first key secondary end points. The average treatment duration was estimated to be 42 months and a lost-to-follow-up rate of 1% per year. Assuming a 3.59% annual event rate in the placebo group, enrollment of 12,600 patients was required, subsequently amended to 14,000. There were no interim efficacy analyses. A hierarchical approach was prespecified to evaluate sequentially each of the six key secondary efficacy end points with statistical significance at each step required to test the next hypothesis, thereby preserving the study-wise Type I error rate at 5%. All analyses were based on the intent-to-treat principle. […]

[1] = prespecified subgroup, interaction P=0.03
[2] = vs placebo, listed as bempedoic acid

## CC(C)(CCCCCC(O)CCCCCC(C)(C)C(=O)O)C(=O)O [Bempedoic Acid, Bempedoic acid]
180 mg oral daily, N = 6992
  3-component MACE, % of patients: 8.2%
  5 component MACE, % of patients: 11.9%
  All-cause mortality, % of patients: 6.2%
  All-cause mortality, nonfatal MI, nonfatal stroke, or coronary revascularization, % of patients: 13.8%
  All-cause mortality, nonfatal MI, nonfatal stroke, or coronary revascularization, number of patients: 962 number of patients
  All-cause mortality, number of patients: 434 number of patients
  Coronary revascularization, % of patients: 6.2%
  Coronary revascularization, number of patients: 435 number of patients
  Death from cardiovascular causes, % of patients: 3.8%
  Death from cardiovascular causes, number of patients: 269 number of patients
  Fatal MI, % of patients: 0.4%
  Fatal MI, number of patients: 29 number of patients
  Fatal and non-fatal MI, % of patients: 3.7%
  Fatal and non-fatal MI, number of patients: 261 number of patients
  Fatal and non-fatal stroke, % of patients: 1.9%
  Fatal and non-fatal stroke, number of patients: 135 number of patients
  Fatal and nonfatal hemorrhagic stroke, % of patients: 0.3%
  Fatal and nonfatal hemorrhagic stroke, number of patients: 20 number of patients
  Fatal and nonfatal non-hemorrhagic stroke, % of patients: 1.7%
  Fatal and nonfatal non-hemorrhagic stroke, number of patients: 118 number of patients
  Fatal stroke, % of patients: 0.3%
  Fatal stroke, number of patients: 18 number of patients
  Hospitalization for unstable angina, % of patients: 1.3%
  Hospitalization for unstable angina, number of patients: 91 number of patients
  Non-fatal MI, % of patients: 3.4%
  Non-fatal MI, number of patients: 236 number of patients
  Non-fatal stroke, % of patients: 1.7%
  Non-fatal stroke, number of patients: 119 number of patients
180 mg oral daily, N = 6992, median follow-up 40.6 months
  Primary efficacy endpoint (MACE-4), % of patients: 11.7%
MACE-4 or hospitalization for unstable angina (MACE-5), 180 mg oral daily, N = 6992
  5 component MACE, number of patients: 831 number of patients
Compared with placebo
  effect on other key secondary end points: time to first occurrence of stroke, death from cardiovascular causes, all-cause mortality: no significant effects
Death from cardiovascular causes, nonfatal MI, nonfatal stroke, or coronary revascularization, 180 mg oral daily, N = 6992, median follow-up 40.6 months
  Primary efficacy endpoint (MACE-4), number of patients: 819 number of patients
Death from cardiovascular causes, nonfatal MI, or nonfatal stroke (MACE-3), 180 mg oral daily, N = 6992
  3-component MACE, number of patients: 575 number of patients
n/N in patients with baseline glycemic status of no diabetes, 180 mg oral daily
  New-onset type 2 diabetes mellitus, number of patients: 429/3848
Patients with baseline glycemic status of no diabetes, 180 mg oral daily
  New-onset type 2 diabetes mellitus, % of patients: (11.1) %
[1]
  HR for the primary end point, primary prevention population: 0.68
  HR for the primary end point, secondary prevention population: 0.91
Vs placebo
  5 component MACE, Hazard Ratio (95% CI): 0.86 (0.78-0.94)
  All-cause mortality, Hazard Ratio (95% CI): 1.03 (0.90-1.18)
  All-cause mortality, nonfatal MI, nonfatal stroke, or coronary revascularization, Hazard Ratio (95% CI): 0.89 (0.82-0.97)
  Death from cardiovascular causes, Hazard Ratio (95% CI): 1.04 (0.88-1.24)
  Fatal MI, Hazard Ratio (95% CI): 1.38 (0.79-2.42)
  Fatal and non-fatal stroke, Hazard Ratio (95% CI): 0.85 (0.67-1.07)
  Fatal and nonfatal hemorrhagic stroke, Hazard Ratio (95% CI): 2.21 (1.01-4.85)
  Fatal and nonfatal non-hemorrhagic stroke, Hazard Ratio (95% CI): 0.78 (0.61-0.99)
  Fatal stroke, Hazard Ratio (95% CI): 1.12 (0.57-2.20)
  Hospitalization for unstable angina, Hazard Ratio (95% CI): 0.66 (0.50-0.86)
  Non-fatal stroke, Hazard Ratio (95% CI): 0.82 (0.64-1.05)
  reduction in coronary revascularization: 19%
  reduction in the composite of death from cardiovascular causes, stroke or MI: 15%
  reduction in the incidence of fatal or nonfatal MI: 23%
  reduction in the primary composite end point (death from cardiovascular causes, stroke, MI, or coronary revascularization): 13%
  Primary efficacy endpoint (MACE-4), Hazard Ratio (95% CI): 0.87 (0.79-0.96)
  Fatal and non-fatal MI, Hazard Ratio (95% CI): 0.77 (0.66-0.91)
  3-component MACE, Hazard Ratio (95% CI): 0.85 (0.76-0.96)
[2]
  Primary efficacy endpoint (MACE-4), Hazard Ratio (95% CI): 0.87
  Fatal and non-fatal MI, Hazard Ratio (95% CI): 0.77
  3-component MACE, Hazard Ratio (95% CI): 0.85
Vs placebo, P 0.001
  Coronary revascularization, Hazard Ratio (95% CI): 0.81
Vs placebo, patients with no diabetes at baseline
  New-onset type 2 diabetes mellitus, Hazard Ratio (95% CI): 0.95 (0.83-1.09)
